In US20260294946A1, “METHOD TO REDUCE FEED CONVERSION RATIO IN A FARMED ANIMAL” (Inbiose N.V., priority 2023, published 2026):

How the values were obtained:
[1] = Trial in calves: live weight, average daily gain, feed intake, feed conversion ratio (12 weeks); format: in vivo, Holstein Friesian calves
From the text: Holstein Friesian calves (2- to 3-week-old, 95% male) were transported from different farms to the experimental facility of Denkavit (Voorthuizen, The Netherlands) where the animals were reared. The calves were randomly and gender-equally divided in four groups based on experimental calf milk replacer (CMR): group A (placebo—standard CMR powder of the farm), group B (standard CMR powder supplemented with 0.005% dry wt. 2′FL), group C (standard CMR powder supplemented with 0.025% dry wt. 3′SL and 0.015% w/w 6′SL) and group D (standard CMR powder supplemented with 0.005% dry wt. 2′FL, 0.025% dry wt. 3′SL and 0.015% dry wt. 6′SL). The calf milk replacer was administered as a liquid to the calves (water was added to the CMR powder to obtain 150 grams CMR powder per liter liquid CMR). Each group involved 100 calves, assigned into four rows (25 calves per row) of two compartment blocks. Each row contained five pens, where four to six calves were living in one pen.
Starting from the day of arrival, calves received standard calf milk replacer (CMR) during a period of 9 weeks. Group A only received the CMR, while the CMR supplied to groups B, C and D was supplemented with MMOs as outlined in the section titled “Animals.” Calf starter (concentrates) and straw were introduced gradually from day 6 till the end of the experiment (12 weeks) while calves had access to corn silage at week 11 and 12. Feeds were provided ad libitum to calves twice a day in the morning and evening and were daily recorded based on rows (concentrates, straw, corn silage) or groups (CMR) consumption.
Calves were followed up by the farm staff since arrival until 12 weeks. Fecal consistency in scale 1-4 (Larson et al., 1977, J. Dairy Science, 60(6): p. 989-991) was recorded daily for the first ten days since arrival. Number of mortalities and signs of adverse effects were registered daily. The animals were treated prophylactically or metaphylactically (herd treatment) with 1 g oxytetracycline 100% (at day 4), 0.5 g Doxylin 50% WSP and 0.8 g Bromhexine 2% (at day 13), and 3.1 ml Tilmicosol 250 mg/ml (at day 24) to prevent and/or treat acute lung inflammation. Individual treatments were followed by remarks of the farm staff and diagnostics of farm veterinary practitioners. Disease incidences and medicinal usage based on individual treatments were recorded to compare between treatment groups. The incidence of diarrhea was 0% in all groups at the start of the study, and 1% (%; group A), 0% (group B), 1% (group C) and 2% (group D) after 12 weeks. Live weight of the animals was monitored at arrival (d1), two weeks (W2), six weeks (W6), ten weeks (W10) and 12 weeks (W12) since arrival. Feed conversion ratio (FCR) of each period was computed based on the input of daily weight gain and daily feed intake.
Prior to analysis, the data of live weight and FCR were checked for outliers. A data point was considered an outlier if it could reasonably be expected that observed trail results were due to other factors than the treatment, e.g., due to sickness. An ANCOVA model as below was used to analyze the live weight data (R version 4.1.2.).
Differences among means with P<0.05 were accepted as significant. Differences among means with 0.05<P<0.10 were accepted as tendency. Multiple comparisons were done with Tukey.
Other performance data were analyzed using a mixed linear model using treatments as fixed and Row as random term using 1me in the nlme package.

Blautia obeum = assay: Fecal samples of piglets, 16S rRNA sequencing; format: in vivo
Description: (§1) On d22, from one piglet per pen (piglet with median weight at weaning) a fresh feces sample was collected and stored at −80° C. Total fecal DNA of 16 selected piglets (1 per pen) were extracted from 200 mg feces. ZymoBIOMICS™ DNA miniprep kit (Zymo Research) in combination with a FASTPREP® 24 device was used to extract and purify the microbial DNA as instructed by the manufacturer. Purified total DNA were eluted in 100 μl and were quickly checked for the concentration and quality using Nanodrop (Implen NANOPHOTOMETER®) before storage at −20° C.
(§2) Total DNA were submitted to Eurofins (GATC, Germany) to perform 16S rRNA sequencing using their INVIEW microbiome high specificity package. Briefly, total DNA were first amplified the hyper-variable regions 16S and integrated the barcodes through PCR. The PCR products were purified, then ligated with adapter for library preparation. The sequencing was done using PacBio sequencing technology, guaranteed for 25000 reads, mean read length […].
(§3) Amplicon analysis was performed using Mothur pipeline (mothur.org). Processing of the raw sequencing data was done according to the Mothur standard operating procedure (mothur.org/wiki/MiSeq_SOP). Alignment was accomplished using DAIRYdb 16S rRNA gene database (GitHub—marcomeola/DAIRYdb). Sequences were classified and any sequences classified as Chloroplast, Mitochondria, unknown, Archaea, or Eukaryota were removed from the data set. Preclustering of the sequences and removal of chimeric sequences using a Mothur-formatted version of the Ribosomal Database Project (RDP) training set and uchime, based on the Mothur protocol. Sequences were classified into Operational Taxonomic Units (OTUs) of ≥97% sequence identity. Singleton and doubleton reads were removed.
(§4) Data statistics of 16S data and figure plotting were performed in RStudio (rstudio.com/). Microbiome data was normalized in relative abundance or cpm (counts per million). The treatment effect of 2′FL in the microbiome abundance data was evaluated on normalized relative abundance (in %) using Mann-Whitney U test.

Lactobacillus mucosae = assay: Fecal samples of piglets, 16S rRNA sequencing; format: in vivo
Description: as §1, §2, §3, §4

[2] = tested on: Faecalibacterium prausnitzii; assay: Fecal samples of piglets, 16S rRNA sequencing; format: in vivo
Description: as §1, §2, §3, §4

Prevotella Sp. RS2 = assay: Fecal samples of piglets, 16S rRNA sequencing; format: in vivo
Description: as §1, §2, §3, §4

[3] = Feed conversion ratio of a farm animal (general statement); format: in vivo; conditions: administered to a farm animal

## 2′-fucosyllactose [2′FL]
[1]; W 0 (arrival), mean ± SD
  Live weight: 45.6 ± 2.8 kg
[1]; W 0-W 2
  Feed conversion ratio (FCR): 1.34
[1]; W 0-W 2, mean ± SD
  Average daily gain: 600.1 ± 155.0 g/day
[1]; W 0-W 6
  Feed conversion ratio (FCR): 1.53
[1]; W 0-W 10
  Feed conversion ratio (FCR): 2.01
[1]; W 0-W 12
  Feed conversion ratio (FCR): 2.28
[1]; W 0-W 12, mean ± SD
  Average daily gain: 1099.5 ± 141.7 g/day
[1]; W 2, mean ± SD
  Live weight: 54.0 ± 3.3 kg
[1]; W 2-W 6
  Feed conversion ratio (FCR): 1.67
[1]; W 2-W 6, mean ± SD
  Average daily gain: 954.9 ± 176.8 g/day
[1]; W 6, mean ± SD
  Live weight: 80.7 ± 7.1 kg
[1]; W 6-W 10
  Feed conversion ratio (FCR): 2.51
[1]; W 6-W 10, mean ± SD
  Average daily gain: 1267.9 ± 202.2 g/day
[1]; W 6-W 12
  Feed conversion ratio (FCR): 2.76
[1]; W 10, mean ± SD
  Live weight: 116.2 ± 11.0 kg
[1]; W 10-W 12
  Feed conversion ratio (FCR): 3.44
[1]; W 10-W 12, mean ± SD
  Average daily gain: 1484.6 ± 260.7 g/day
[1]; W 12, mean ± SD
  Live weight: 136.8 ± 12.7 kg
[1]; calf milk replacer, 12 weeks trial
  Average feed intake, CMR: 42.3 kg
[1]; concentrates, 12 weeks trial, mean ± SD
  Average feed intake, Concentrates: 131.6 ± 6.2 kg
[1]; corn silage, mean ± SD
  Average feed intake, Corn silage: 14.8 ± 1.3 kg
[1]; straw, 12 weeks trial, mean ± SD
  Average feed intake, Straw: 16.0 ± 0.8 kg
Blautia obeum; d 22
  effect on abundance: promoted
Blautia obeum; weaning day (d 22), P=0.0428 vs control
  Relative abundance in fecal samples: 0.1672%
Lactobacillus mucosae; d 22
  effect on abundance: promoted
Lactobacillus mucosae; weaning day (d 22), P=0.0263 vs control
  Relative abundance in fecal samples: 0.1586%
[2]; d 22
  effect on abundance: promoted
[2]; weaning day (d 22), P=0.00965 vs control
  Relative abundance in fecal samples: 0.278%
Prevotella Sp. RS2; d 22
  effect on abundance: inhibited
Prevotella Sp. RS2; weaning day (d 22), P=0.0129 vs control
  Relative abundance in fecal samples: 0.1093%
[3]
  decrease of the feed conversion ratio: strong decrease
